Usually IC50 stands for the concentration needed to halve the response being measured.

Values after ≈ are worked out from the molar mass of the structure shown. Peptide text beside a SMILES is read from it. * marks the point of attachment. Cbz = O=C(OCc1ccccc1)*

One experiment concerns Leishmania major. Nature of the experiment: Antileishmanial activity against Leishmania major promastigotes after 48 hrs by MTT method. Type of experiment: functional, organism-based. In general terms: Formazan colour is commonly taken as a measure of viable cells.
The nature of experiment [1]: Cytotoxicity against african green monkey COS7 cells by XTT method. Type of experiment: cell-based. The following applies: Chlorocebus aethiops, COS-7.
Another experiment concerns Leishmania panamensis. Nature of the experiment: Antileishmanial activity against Leishmania panamensis promastigotes after 48 hrs by MTT method. In kind it is functional, organism-based.
A further experiment concerns Huh-7. Nature of the experiment: Cytotoxicity against human HuH7 cells by XTT method. Type of experiment: functional, cell-based.
The subject of the next experiment is Leishmania guyanensis. Nature of the experiment: Antileishmanial activity against Leishmania guyanensis promastigotes after 48 hrs by MTT method. Type of experiment: functional, organism-based.

In the experiment with Leishmania major, `C=C[C@@]1(C)Cc2c(O)ccc(O)c2C[C@H]1C(=C)C` returned an IC50 of 4.5 µg/mL (≈ 18.4 µM).
With `CC1=C2C(=O)c3c(O)ccc(O)c3CC2(C)CCC1=O` (racemic), the IC50 in experiment [1] turned out to be 51.7 µg/mL; with Leishmania panamensis, 13 µg/mL (≈ 47.7 µM); in the experiment on Huh-7 it was 71.8 µg/mL; in the experiment with Leishmania guyanensis it was 7 µg/mL (≈ 25.7 µM); in the experiment on Leishmania major it was 81.4 µg/mL (≈ 299 µM).
With `CC1(O)CCCC2(C)Cc3c(O)ccc(O)c3CC12` (racemic), the IC50 in experiment [1] is more than 100 µg/mL; with Leishmania panamensis, 1.8 µg/mL (≈ 6.86 µM); in the experiment on Huh-7, 41.7 µg/mL; in the experiment on Leishmania guyanensis, 3 µg/mL (≈ 11.4 µM); in the experiment with Leishmania major it was 2.7 µg/mL (≈ 10.3 µM).
In the case of `C/C(C=O)=C\CCC(C)(O)/C=C\c1cc(O)ccc1O` (racemic), the IC50 in experiment [1] was more than 100 µg/mL; in the experiment with Huh-7 it was more than 100 µg/mL; in the experiment with Leishmania major, more than 25 µg/mL.
Take `CC1=C2C(=O)c3c(OC(=O)c4ccc(Br)cc4)ccc(OC(=O)c4ccc(Br)cc4)c3CC2(C)CCC1=O` (racemic): the IC50 was more than 100 µg/mL in experiment [1], more than 100 µg/mL in the experiment on Huh-7 and 23.5 µg/mL (≈ 36.8 µM) in the experiment with Leishmania major.
Regarding `CC(=O)Oc1ccc(OC(C)=O)c2c1CC1(C)CCC(=O)C(C)=C1C2=O` (racemic), the IC50 is 50.7 µg/mL in experiment [1], 65.5 µg/mL with Huh-7 and 80.4 µg/mL (≈ 226 µM) in the experiment with Leishmania major.
On to `C=C[C@@]1(C)Cc2c(OC(C)=O)ccc(OC(C)=O)c2C[C@H]1C(=C)C` [ACETYLCORDIAQUINOL C], for which the IC50 in experiment [1] was 20.1 µg/mL; with Huh-7, 60.9 µg/mL; in the experiment on Leishmania major, 1.4 µg/mL (≈ 4.26 µM).
Regarding `C/C(C=O)=C\CC/C(C)=C/Cc1cc(O)ccc1O` [ALLIODORIN], the IC50 turned out to be 31.9 µg/mL in experiment [1]; 1.8 µg/mL (≈ 6.91 µM) in the experiment on Leishmania panamensis; 44.8 µg/mL with Huh-7; 2 µg/mL (≈ 7.68 µM) in the experiment on Leishmania guyanensis; 7 µg/mL (≈ 26.9 µM) in the experiment with Leishmania major.
`C[C@@H]1[C@H](O)[C@@H](C)/C=C/C=C/C=C/C=C/C=C/C=C/C=C/[C@H](O[C@@H]2O[C@H](C)[C@@H](O)[C@H](N)[C@@H]2O)C[C@@H]2O[C@](O)(C[C@@H](O)C[C@@H](O)[C@H](O)CC[C@@H](O)C[C@@H](O)CC(=O)O[C@H]1C)C[C@H](O)[C@H]2C(=O)O` [AMPHOTERICIN B]: the IC50 with Leishmania panamensis, in the experiment on Leishmania guyanensis and in the experiment on Leishmania major was less than 0.1 µg/mL each time.
Take `CC1=CCC[C@@]2(C)CC3=C(C[C@@H]12)C(=O)C=CC3=O` [CORDIACHROME A]: the IC50 in experiment [1] is 22.5 µg/mL; in the experiment with Huh-7, 61.1 µg/mL; in the experiment with Leishmania major, 4.1 µg/mL (≈ 16.9 µM).
On the same counts, the results for `C=C1CCC[C@@]2(C)CC3=C(C[C@@H]12)C(=O)C=CC3=O` [CORDIACHROME B] are 14.6 µg/mL, 71.5 µg/mL and 2.5 µg/mL (≈ 10.3 µM).
As for `C=C[C@@]1(C)CC2=C(C[C@H]1C(=C)C)C(=O)C=CC2=O` [Cordiachrome C], the figures for the IC50 in the experiment with Leishmania panamensis, in the experiment on Leishmania guyanensis and with Leishmania major were 5.5 µg/mL (≈ 22.7 µM), 6 µg/mL (≈ 24.8 µM) and 21.1 µg/mL (≈ 87.1 µM), respectively.
On to `CC(C)C[C@@H](C=O)NC(=O)[C@H](CC(C)C)NC(=O)[C@H](CC(C)C)NC(=O)OCc1ccccc1` [MG-132] (Cbz-Leu-Leu-Leu-aldehyde), for which the IC50 (in experiment [1]; with Huh-7) was less than 10 µM throughout.

The values are drawn from ChEMBL document CHEMBL1142411, “Antileishmanial compounds from Cordia fragrantissima collected in Burma (Myanmar)” (J Nat Prod, 2008).
